Assay results reported in patent publication US20240041805A1, “PHARMACEUTICAL COMPOSITIONS OF NICLOSAMIDE AND A PROTEIN” (priority 2020, published 2024).
In brackets after ≈: the same amount, converted by molar mass. Several values for one entry are separate records, joined by “and”; a condition that tells them apart may be missing. Equal entries are not always repeated.

How the values were obtained:
SARS-CoV-2 [1] = experiment: microbe, parasite or virus in culture; assay type: cell-based; conditions: Severe acute respiratory syndrome coronavirus 2, Vero C1008; Vero E6 cells, observed CPE, dose based on NIC content
MERS-CoV = experiment: microbe, parasite or virus in culture; assay type: cell-based; conditions: Middle East respiratory syndrome-related coronavirus, Vero C1008, read-out: EC50 dose for MERS-CoV
SARS-CoV-2 [2] = assay type: cell-based
[3] = FTIR-ATR secondary structure analysis of hLYS; assay type: physicochemical
[4] = Size exclusion chromatography of hLYS aggregation before and after spray drying and nebulization; assay type: physicochemical; conditions: not nebulized
[5] = test system: methicillin-resistant S. aureus strain Mu50; experiment: Resazurin-based microbroth dilution assay; assay type: cell-based; conditions: S. aureus Mu50, hLYS alone
[6] = Particle size distribution by laser diffraction (dry powder and reconstituted suspension); conditions: after air jet milling (micronized)

Compound: O=C(Nc1ccc([N+](=O)[O-])cc1Cl)c1cc(Cl)ccc1O [NIC-M, 5-Chloro-N-(2-chloro-4-nitrophenyl)salicylamide]
- EC50 (SARS-CoV-2 [1]): 0.03 µg/mL (≈ 0.0917 µM)
- EC50 (MERS-CoV): 0.016 µg/mL (≈ 0.0489 µM)
- inhibitory activity against SARS-CoV-2 compared to solubilized NIC (SARS-CoV-2 [2]; NIC dose of 0.125 μg/mL, quantified viral particles): significantly improved activity compared to solubilized NIC

Compound: hLYS: recombinant human lysozyme (InVitria)
- Anti-parallel β-sheet ([3]; 1618-1625 cm^−1): 21.7%
- Parallel β-sheet ([3]; 1633-1637 cm^−1): 0.7%
- α-helix ([3]; 1653 cm^−1): 57.6%
- Turns ([3]; 1678-1680 cm^−1): 20.2%
- activity against SARS-CoV-2 (SARS-CoV-2 [2]; hLYS alone): appeared to exhibit activity against SARS-CoV-2
- Fragment [4]: 0.7%
- HMW [4]: 17.2%
- Monomer [4]: 82.1%
- inhibitory activity [5]: No inhibitory activity

Compound: O=C(Nc1ccc([N+](=O)[O-])cc1Cl)c1cc(Cl)ccc1O [niclosamide, 5-Chloro-N-(2-chloro-4-nitrophenyl)salicylamide]
- X50 diameter [6]: 2.2 μm
- X90 diameter [6]: 4.2 μm and 4.1 μm
